The target in this experiment is T1, GlyT1 transporter (Homo sapiens, UniProt P48067).
T1 construct: endogenously expressing the GlyT1 transporter; host or cells: SK-N-MC human neuroblastoma cells
T1 sequence (P48067 1-706): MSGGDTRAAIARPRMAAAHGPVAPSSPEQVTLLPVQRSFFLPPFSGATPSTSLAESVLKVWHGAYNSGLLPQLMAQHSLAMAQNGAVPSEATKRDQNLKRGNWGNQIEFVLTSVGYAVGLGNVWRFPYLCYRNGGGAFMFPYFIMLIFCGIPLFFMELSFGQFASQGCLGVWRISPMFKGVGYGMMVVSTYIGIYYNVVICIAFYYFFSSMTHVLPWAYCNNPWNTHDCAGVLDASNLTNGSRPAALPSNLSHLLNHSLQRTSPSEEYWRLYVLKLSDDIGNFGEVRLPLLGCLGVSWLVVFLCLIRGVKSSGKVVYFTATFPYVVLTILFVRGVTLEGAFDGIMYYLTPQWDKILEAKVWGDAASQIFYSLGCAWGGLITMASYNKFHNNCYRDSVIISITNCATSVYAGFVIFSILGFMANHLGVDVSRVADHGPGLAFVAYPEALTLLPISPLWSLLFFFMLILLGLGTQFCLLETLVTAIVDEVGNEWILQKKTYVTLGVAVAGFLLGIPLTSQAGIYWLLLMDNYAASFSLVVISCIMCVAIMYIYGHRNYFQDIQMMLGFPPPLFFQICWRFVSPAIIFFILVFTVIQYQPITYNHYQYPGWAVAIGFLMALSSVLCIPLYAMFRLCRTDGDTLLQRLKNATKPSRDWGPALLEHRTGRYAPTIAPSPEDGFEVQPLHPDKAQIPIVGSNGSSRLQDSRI
Nature of the experiment: GlyT1 assay: 3H-glycine uptake into SK-N-MC cells (Cytostar-T format). The class given is cell-based. The note with it: glycine uptake in human SK-N-MC cells endogenously expressing GlyT1; 500 nM glycine, 1% DMSO, signal recorded over 60 min. Put shortly: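 Endogenous GlyT1 in human SK-N-MC cells, confluent after 16-18 h, in HBSS with 5 mM alanine. Compounds preincubated about 5-10 min, then 500 nM glycine (half ³H) added, 1% DMSO. Scintillation-proximity uptake recorded kinetically over 60 min; IC50 from linear-range slopes over 8 concentrations, nonspecific uptake defined with 10 μM RG-1678.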
The compound `CC(C)Oc1ccc(S(C)(=O)=O)cc1C(=O)N1CC2CC2(c2nc(C(F)(F)F)co2)C1` (racemic) [Example 110, (2-Isopropoxy-5-methanesulfonyl-phenyl)-[1-(4-trifluoromethyl-oxazol-2-yl)-3-aza-bicyclo[3.1.0]hex-3-yl]-methanone] returned an IC50 of 1130 nM.
The value for `C[C@@H](Oc1ccc(S(C)(=O)=O)cc1C(=O)N1CC2CC2(c2nc(C(F)(F)F)co2)C1)C(F)(F)F` (mixture of isomers) [Example 113, [5-Methanesulfonyl-2-(2,2,2-trifluoro-1-methyl-ethoxy)-phenyl]-[1-(4-trifluoromethyl-oxazol-2-yl)-3-aza-bicyclo[3.1.0]hex-3-yl]-methanone] was 216 nM; that for `COC1(c2nc(C34CC3CN(C(=O)c3cc(S(C)(=O)=O)ccc3O[C@@H](C)C(F)(F)F)C4)no2)CC1` (mixture of isomers) [Example 116, [5-Methanesulfonyl-2-(2,2,2-trifluoro-1-methyl-ethoxy)-phenyl]-{1-[5-(1-methoxy-cyclopropyl)-[1,2,4]oxadiazol-3-yl]-3-aza-bicyclo[3.1.0]hex-3-yl}-methanone] was 10 nM; that for `COC1(c2nc(C34CC3CN(C(=O)c3cc(S(C)(=O)=O)ccc3O[C@H](C)C(F)(F)F)C4)no2)CC1` (mixture of isomers) [Example 119, [5-Methanesulfonyl-2-(2,2,2-trifluoro-1-methyl-ethoxy)-phenyl]-{1-[5-(1-methoxy-cyclopropyl)-[1,2,4]oxadiazol-3-yl]-3-aza-bicyclo[3.1.0]hex-3-yl}-methanone] was 11 nM.
In turn, `C[C@@H](Oc1ccc(S(C)(=O)=O)cc1C(=O)N1CC2CC2(c2nnc(C(F)(F)F)o2)C1)C(F)(F)F` (mixture of isomers) [Example 122, [5-Methanesulfonyl-2-(2,2,2-trifluoro-1-methyl-ethoxy)-phenyl]-[1-(5-trifluoromethyl-[1,3,4]oxadiazol-2-yl)-3-aza-bicyclo[3.1.0]hex-3-yl]-methanone] had an IC50 of 21 nM. Against the preceding compound, the IC50 is about 1.9-fold higher.
Under `C[C@H](Oc1ccc(S(C)(=O)=O)cc1C(=O)N1CC2CC2(c2nnc(C(F)(F)F)o2)C1)C(F)(F)F` (mixture of isomers) [Example 125, [5-Methanesulfonyl-2-(2,2,2-trifluoro-1-methyl-ethoxy)-phenyl]-[1-(5-trifluoromethyl-[1,3,4]oxadiazol-2-yl)-3-aza-bicyclo[3.1.0]hex-3-yl]-methanone] stands 31 nM; under `C[C@@H](Oc1ccc(S(C)(=O)=O)cc1C(=O)N1CC2CC2(c2ncc(C(F)(F)F)o2)C1)C(F)(F)F` (mixture of isomers) [Example 128, [5-Methanesulfonyl-2-(2,2,2-trifluoro-1-methyl-ethoxy)-phenyl]-[1-(5-trifluoromethyl-oxazol-2-yl)-3-aza-bicyclo[3.1.0]hex-3-yl]-methanone], 6 nM; under `C[C@H](Oc1ccc(S(C)(=O)=O)cc1C(=O)N1CC2CC2(c2ncc(C(F)(F)F)o2)C1)C(F)(F)F` (mixture of isomers) [Example 131, [5-Methanesulfonyl-2-(2,2,2-trifluoro-1-methyl-ethoxy)-phenyl]-[1-(5-trifluoromethyl-oxazol-2-yl)-3-aza-bicyclo[3.1.0]hex-3-yl]-methanone], 19 nM.
Under `C[C@H](Oc1ccc(S(C)(=O)=O)cc1C(=O)N1CC2CC2(c2noc(C3(C)CC3)n2)C1)C(F)(F)F` (mixture of isomers) [Example 134, [5-Methanesulfonyl-2-(2,2,2-trifluoro-1-methyl-ethoxy)-phenyl]-{1-[5-(1-methyl-cyclopropyl)-[1,2,4]oxadiazol-3-yl]-3-aza-bicyclo[3.1.0]hex-3-yl}-methanone] stands 8 nM.
Under `C[C@@H](Oc1ccc(S(C)(=O)=O)cc1C(=O)N1CC2CC2(c2noc(C3(C)CC3)n2)C1)C(F)(F)F` (mixture of isomers) [Example 135, [5-Methanesulfonyl-2-(2,2,2-trifluoro-1-methyl-ethoxy)-phenyl]-{1-[5-(1-methyl-cyclopropyl)-[1,2,4]oxadiazol-3-yl]-3-aza-bicyclo[3.1.0]hex-3-yl}-methanone] stands 7 nM.

The term IC50 denotes the point on the concentration scale where inhibition reaches its midpoint.

These data come from US9012489B2, “Phenyl-3-aza-bicyclo[3.1.0]hex-3-yl-methanones and the use thereof as medicament” (Boehringer Ingelheim International GmbH, priority 2011, dated 2015).
